Data set [1] can be described thus: Quality of castor oil containing emulsions with different steroids (pH, volume distribution, span, storage stability). As to conditions: for D(4:3) / pH / Span: emulsion of the steroid; for pH: heat sterilized; for Span: Malvern Mastersizer; for Storage 5 and 40°C: storage stability of emulsion. In kind it is physicochemical. The procedure:
In order to determinate the quality of the castor oil containing emulsions with different steroids, the following compositions were prepared:
The steroids were weighed in a 50 ml glass beaker. The castor oil (CO) or a mixture of castor oil and soybeans oil (CO+SBO) in a proportion of 70 : 30 was added to the beaker which was heated and the steroids were dissolved. The phospholipids were added to the oil phase and the agitation continued for another five minutes. This mixture was added to a heated aqueous phase containing water and glycerol and agitated for five minutes. The mixture was thereafter homogenized to an emulsion in a high pressure lab scale homogeniser at the technically highest possible pressure. The resultant emulsions were dispersed and sealed 20 ml glass vials which were heat sterilized. The emulsions were analysed with respect to the appearance, the shaking stability, pH and volume distribution. The span was analysed with a Malvern Mastersizer. The appearance of the droplets larger than 1µm and the average area on a relevant picture and the presence of precipitate were investigated with a microscope. The storage stability at 5 and 40°C was also studied.

Data set [2] in a line: Solubility of steroid and stability of the oil-in-water emulsions of Example 2. It counts as physicochemical. As to conditions: in Formulation 1 compared with Formulation 3. The procedure: For the biological experimentation oil-in-water emulsions were prepared from the following components:
pH was adjusted to 8.5 by NaOH and water for injection was added to 1 ml in all formulations.
Formulations 1 and 2 are emulsions according to the present invention, whereas Formulation 3 is a state of the art emulsion according to the European patent EP 233 849. The medium chain triglycerides in Formulation 2 are derived from coconut oil and will contain a fraction of triglycerides with fatty add residues having 6 to 12 carbon atoms. According to the present invention, the eltanolone was first mixed with castor oil or a mixture of castor oil and soybean oil and/or MCT. This leads to a substantial dissolution of the eltanolone. An emulsion was then prepared from the resulting oil-eltanolone mixture together with the additional indicated components. The resulting emulsions were stable and had average particle sizes of about 0.2 to 0.3 µ and could be sterilized by autoclaving without destabilisation. It is notable that in Formulations 1 and 2 according to the present invention half the amount of lipids is sufficient for obtaining a substantial dissolution of eltanolone when compared to Formulation 3. The solubility of eltanolone is for example about 5 times higher in Formulation 1 than in Formulation 3.

The mark [3] stands for this setting: vehicle CO+SBO (castor oil and soybean oil 70 : 30).

Eight compounds from patent publication EP0659072B1, “PHAR[…] […] STEROIDS” (Pharmacia AB, priority 1993, dated 1995) can be followed below.

Each structure is given as a SMILES string. Where only a bound is given, the exact number is not on record here.

With `CC(=O)[C@H]1CC[C@H]2[C@@H]3CC[C@H]4C[C@H](O)CC[C@]4(C)[C@H]3CC[C@]12C` [Allo pregnanolone, 5α-pregnan-3β-ol-20-one], in data set [1] (vehicle CO (castor oil)), the “D(4:3)” value turned out to be 0.69 µm; the pH amounted to 8.8; the Span is recorded as 1.70; the “Storage 5 and 40°C” value is reported as more than 3 months. Also, in data set [1] (vehicle CO+SBO (70 : 30)), the “D(4:3)” value was determined as 0.53 µm; the Span was determined as 1.58; the “Storage 5 and 40°C” value is reported as more than 3 months. In data set [1] (setting [3]), the pH came out at 9.0.
In the case of `C[C@]12CC[C@@H](O)C[C@@H]1CC[C@@H]1[C@@H]2CC[C@]2(C)C(=O)CC[C@@H]12` [Androsterone, 5α-androstan-3α-ol-17-one], in data set [1] (vehicle CO (castor oil)), the “D(4:3)” value is 0.83 µm; the pH is reported as 8.9; the Span is given as 1.79; the “Storage 5 and 40°C” value was more than 1 month months. Moreover, in data set [1] (vehicle CO+SBO (70 : 30)), the “D(4:3)” value is 0.51 µm; the Span was found to be 1.50; the “Storage 5 and 40°C” value is given as more than 1 month months. Also, the pH in data set [1] (setting [3]) is listed as 9.2.
For the compound `CC(=O)[C@H]1CC[C@H]2[C@@H]3CC[C@@H]4C[C@@H](O)CC[C@]4(C)[C@H]3CC[C@]12C` [Epipreganolone, 5β-pregnan-3β-ol-20-one], in data set [1] (vehicle CO (castor oil)), the “D(4:3)” value is 0.75 µm; the pH is reported as 8.8; the Span was found to be 1.81; the “Storage 5 and 40°C” value is more than 4 months. For the same compound, in data set [1] (vehicle CO+SBO (70 : 30)), the “D(4:3)” value is recorded as 0.75 µm; the Span came out at 1.71; the “Storage 5 and 40°C” value is given as more than 4 months. The compound further came in with a pH in data set [1] (setting [3]) of 9.0.
On to `C[C@]12CCC(=O)C=C1CC[C@@H]1[C@@H]2[C@@H](O)C[C@@]2(C)[C@H]1CC[C@]2(O)C(=O)CO` [Hydrocortisone, 11β,17α,21-trihydroxypregna-4-ene-3,20-dione, reference compound], for which, in data set [1] (vehicle CO (castor oil)), the “D(4:3)” value is listed as 0.76 µm, the pH was 8.7 and the Span was found to be 1.43. For the same compound, in data set [1] (vehicle CO+SBO (70 : 30)), the “D(4:3)” value is on record as 0.56 µm and the Span was determined as 1.51. This compound showed a pH in data set [1] (setting [3]) of 8.8.
As for `C[C@]12C=CC(=O)C=C1CC[C@@H]1[C@@H]2[C@@H](O)C[C@@]2(C)[C@H]1CC[C@]2(O)C(=O)CO` [Prednisolone, 11β-11, 17, 21-trihydroxypregna-1,4-diene-3,20-dione, reference compound], in data set [1] (vehicle CO (castor oil)), the “D(4:3)” value stood at 0.81 µm; the pH stood at 8.9; the Span is given as 1.28; the “Storage 5 and 40°C” value is listed as more than 2 months. Further, in data set [1] (vehicle CO+SBO (70 : 30)), the “D(4:3)” value was found to be 0.70 µm; the Span amounted to 1.26; the “Storage 5 and 40°C” value is recorded as more than 2 months. Besides, the pH in data set [1] (setting [3]) is 8.9.
As to `CC(=O)[C@H]1CC[C@H]2[C@@H]3CC=C4C[C@@H](OS(=O)(=O)O)CC[C@]4(C)[C@H]3CC[C@]12C` [Pregnenolone sulphate, 5-pregnen-3β-ol-20-one-sulphate], in data set [1] (vehicle CO (castor oil)), the “D(4:3)” value stood at 0.97 µm; the pH is reported as 8.8; the Span is listed as 1.76; the “Storage 5 and 40°C” value is more than 1 month months. In addition, in data set [1] (vehicle CO+SBO (70 : 30)), the “D(4:3)” value stood at 0.50 µm; the Span turned out to be 1.56; the “Storage 5 and 40°C” value is listed as more than 1 month months. For the same compound, in data set [1] (setting [3]), the pH is recorded as 8.8.
As to `C[C@]12CC[C@@H](O)C[C@H]1CC[C@@H]1[C@@H]2CC[C@]2(C)[C@@H](C(=O)CO)CC[C@@H]12` [Tetrahydrodeoxycorticosterone, 5β-pregnan-3α,21-diol-20-one], in data set [1] (vehicle CO (castor oil)), the “D(4:3)” value was determined as 0.86 µm; the pH was 9.0; the Span turned out to be 1.80; the “Storage 5 and 40°C” value is listed as more than 1 month months. In data set [1] (vehicle CO+SBO (70 : 30)), the “D(4:3)” value was determined as 0.58 µm; the Span was found to be 1.52; the “Storage 5 and 40°C” value was more than 1 month months. In data set [1] (setting [3]), the pH was determined as 9.1.
Turning to `CC(=O)[C@H]1CC[C@H]2[C@@H]3CC[C@@H]4C[C@H](O)CC[C@]4(C)[C@H]3CC[C@]12C` [eltanolone, 5β-pregnan-3α-ol-20-one], the solubility of eltanolone entry in data set [2] is “about 5 times higher”.
